In brackets after ≈: the same amount, converted by molar mass.
Tests used:
[1] = system: rodent macrophage (RAW) cell line; assay: cells; conditions: Mus musculus, Macrophage, read-out: Macrophage IC50
Description: General cytotoxicity was assessed by first determining LC50 's against a rodent macrophage (RAW) cell line using the 3-(4,5-dimethylthiazole-2-yl)-2,5-diphenyltetrazolium bromide (MTT) assay as described in one of our earlier studies. This screen was conducted to identify compounds that may require de-selection due to generalized toxicity. […] In vitro neurocytotoxicity was assessed by determining LC50s against primary mouse neurons using the MTT assay as described previously. Inhibition of the A2A and A1 receptors was determined at 200 nM in duplicate by Caliper Biosciences (Hanover, Maryland).

[2] = system: P. falciparum strain TM90C2A; assay: labeled hypoxanthine susceptibility assay, P. falciparum TM90C2A; format: cell-based, Plasmodium falciparum; conditions: for IC90: Plasmodium falciparum, TM90C2A, read-out: PF C2A IC90; for CSI (C2A/W2): ratio of IC90 C2A to IC90 W2
Description: (§1) The in vitro activities of quinoline methanols against P. falciparum strains W2, D6, TM91C235, and TM90C2A were evaluated using the traditional labeled hypoxanthine assay of Desjardins et al as modified by Milhous et al. These four P. falciparum strains were selected since they have various levels of resistance to conventional anti-malarials.

[3] = system: P. falciparum strain W2; assay: labeled hypoxanthine susceptibility assay, P. falciparum W2; format: cell-based, Plasmodium falciparum; conditions: Plasmodium falciparum, W2, read-out: PF W2 IC90
Description: as §1

[4] = system: P. falciparum strain TM91C235; assay: labeled hypoxanthine susceptibility assay, P. falciparum TM91C235; format: cell-based, Plasmodium falciparum; conditions: Plasmodium falciparum, read-out: PF C235 IC90
Description: as §1

[5] = system: P. falciparum strain D6; assay: labeled hypoxanthine susceptibility assay, P. falciparum D6; format: cell-based, Plasmodium falciparum; conditions: Plasmodium falciparum, D6, read-out: PF D6 IC90, P. falciparum D6
Description: as §1

SMILES	IC50 [1] [µM]	IC90 [2] [µg/mL]	CSI (C2A/W2) [2]	IC90 [3] [µg/mL]	IC90 [4] [µg/mL]	IC90 [5] [µg/mL]
Cc1ccc(CNCC(O)c2cc(C(F)(F)F)nc3c(C(F)(F)F)cccc23)cc1 (racemic) [compound 308375]	> 100	0.044 (≈ 0.103 µM)	8.4	0.00526 (≈ 0.0123 µM)	0.0443 (≈ 0.103 µM)	0.0392 (≈ 0.0916 µM)
CCCCN(CCC#N)CC(O)c1cc(C(F)(F)F)nc2c(C(F)(F)F)cccc12 (racemic) [compound 308485]	46.6	0.0883 (≈ 0.204 µM)	9.5	0.00934 (≈ 0.0216 µM)	0.059 (≈ 0.136 µM)	0.0604 (≈ 0.139 µM)
N#CCCN(CC(O)c1cc(C(F)(F)F)nc2c(C(F)(F)F)cccc12)C1CCCCC1 (racemic) [compound 308486]	18.7	0.0662 (≈ 0.144 µM)	12.1	0.00549 (≈ 0.0119 µM)	0.0413 (≈ 0.0899 µM)	0.0312 (≈ 0.0678 µM)
OC(CNc1nc2ccccc2[nH]1)c1cc(C(F)(F)F)nc2c(C(F)(F)F)cccc12 (racemic) [compound 308491]	15.4	0.0835 (≈ 0.19 µM)	3.8	0.0219 (≈ 0.0498 µM)	0.0716 (≈ 0.163 µM)	0.0482 (≈ 0.11 µM)
CC1CCN(CC(C)(C)NCC(O)c2cc(C(F)(F)F)nc3c(C(F)(F)F)cccc23)CC1 (racemic) [compound 308592]	38	0.0653 (≈ 0.137 µM)	14.7	0.00445 (≈ 0.00932 µM)	0.0625 (≈ 0.131 µM)	0.0284 (≈ 0.0594 µM)

— article PMC2833169, “Anti-malarial activity of a non-piperidine library of next-generation quinoline methanols” (Malaria Journal, 2010)
